{
  "source": "patent US20040022780A1",
  "about": "“Serine protease and topical retinoid compositions useful for treatment of acne vulgarise and production of anti-aging effects” (priority 1997, published 2004)",
  "tested_on": "Rhino mouse skin",
  "experiment": "Histology after suboptimal trypsin, all-trans retinoic acid or both",
  "type": "in vivo",
  "conditions": "suboptimal dose alone: 0.005% (w/v) trypsin or 0.0005% (w/v) all-trans retinoic acid",
  "procedure": "A first set of Rhino mice of Example 1 were treated with suboptimal doses of the trypsin composition of Example 2. […] A second set of Rhino mice of Example 1 were treated with suboptimal concentrations of the all-trans retinoic acid composition of Example 2. A third set of Rhino mice of Example 1 were treated with both suboptimal doses of the trypsin composition of Example 2 and the all-trans retinoic acid composition of Example 2. In this third set of Rhino mice, the trypsin and all-trans retinoic acid treatments were each administered daily, but at different times (i.e. trypsin in the morning and all-trans retinoic acid in the afternoon). Mice were sacrificed and their skins were examined histologically with the procedure set forth in Example 3.",
  "data": [
    {"smiles": "CC1=C(/C=C/C(C)=C/C=C/C(C)=C/C(=O)O)C(C)(C)CCC1", "note": "[all-trans retinoic acid, reference compound]", "values": [
      {"measurement": "skin histology of treatment given alone vs untreated skin", "result": "marked inprovement"}
    ]}
  ]
}
